Assay results from US7728020B2, “Amino acid derivatives” (Novartis AG, priority 2004, dated 2010).

Assays:
[1] = target: T1, human S1P receptor EDG-6 (S1P4) (Homo sapiens, UniProt O95977); test: GTP[γ-35S] binding SPA, S1P receptor profiling (S1P4); type: biochemical; parameters: key to S1P4 mode of action: Agon = agonist; settings: GTP[γ-35S] SPA
T1 construct: expressed in transfected cells
T1 sequence (O95977 1-384): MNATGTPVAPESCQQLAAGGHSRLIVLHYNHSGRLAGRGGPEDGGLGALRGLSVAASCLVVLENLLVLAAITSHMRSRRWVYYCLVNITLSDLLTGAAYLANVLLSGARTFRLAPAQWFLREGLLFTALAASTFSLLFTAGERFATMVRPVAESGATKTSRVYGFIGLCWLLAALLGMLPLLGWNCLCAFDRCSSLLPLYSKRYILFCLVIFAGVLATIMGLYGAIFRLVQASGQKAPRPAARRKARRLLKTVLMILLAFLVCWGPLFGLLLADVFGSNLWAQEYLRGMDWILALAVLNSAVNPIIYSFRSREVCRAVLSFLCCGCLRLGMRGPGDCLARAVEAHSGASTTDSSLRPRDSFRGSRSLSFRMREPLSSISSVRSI
Experimental: (§1) Sphingosine-1-phosphate (SIP) Receptor Profiling
(§2) Agonist activities of compounds are tested on the human S1P receptors EDG-1 (S1P1), EDG-3 (S1P3), EDG-5 (S1P2), EDG-6 (S1P4) and EDG-8 (S1P5). […] The assay technology used is SPA (scintillation proximity based assay). Briefly, DMSO dissolved compounds are serially diluted and added to SPA-based (Amersham-Pharmacia) immobilised S1P receptor expressing membrane protein (10-20 μg/well) in the presence of 50 mM Hepes, 100 mM NaCl, 10 mM MgCl2, 10 μM GDP, 0.1% fat free BSA and 0.2 nM GTP [γ^35S] (1200 Ci/mmol). After incubation in 96 well microtiterplates at RT for 120 min, unbound GTP [γ^35S] is separated by a centrifugation step. Luminescence of SPA beads triggered by membrane bound GTP [γ^35S] is quantified with a TOPcount plate reader (Packard). EC50s are calculated using standard curve fitting software. In this assay, the compounds of formula I have a binding affinity to S1P1 receptor <50 nM.

[2] = target: T2, human S1P receptor EDG-3 (S1P3) (Homo sapiens, UniProt Q99500); test: GTP[γ-35S] binding SPA, S1P receptor profiling (S1P3); type: biochemical; parameters: key to S1P3 mode of action: Agon = agonist; settings: GTP[γ-35S] SPA
T2 construct: expressed in transfected cells
Experimental: as §1, §2

[3] = target: T3, human S1P receptor EDG-1 (S1P1) (Homo sapiens, UniProt P21453); test: GTP[γ-35S] binding SPA, S1P receptor profiling (S1P1); type: biochemical; parameters: key to S1P1 mode of action: Agon = agonist; settings: GTP[γ-35S] SPA
T3 construct: expressed in transfected cells
Experimental: as §1, §2

[4] = target: T4, human S1P receptor EDG-8 (S1P5) (Homo sapiens, UniProt Q9H228); test: GTP[γ-35S] binding SPA, S1P receptor profiling (S1P5); type: biochemical; parameters: key to S1P5 mode of action: Agon = agonist; settings: GTP[γ-35S] SPA
T4 construct: expressed in transfected cells
Experimental: as §1, §2

[5] = system: peripheral blood lymphocytes; test: Blood lymphocyte depletion; type: in vivo; settings: rats, 3.2 mg/kg p.o. after 6 h
Experimental: B. In vivo: Blood Lymphocyte Depletion
A compound of formula I or the vehicle is administered orally by gavage to rats. Tail blood for hematological monitoring is obtained on day −1 to give the baseline individual values, and at 2, 6, 24, 48 and 72 hours after application. In this assay, the compounds of formula I deplete peripheral blood lymphocytes when administered at a dose of 0.03 to 3 mg/kg. For example, following results are obtained: depletion of peripheral blood lymphocytes by more than 50%.

[6] = membranes of transfected CHO or RH7777 cells

T4 sequence (Q9H228 whole entry): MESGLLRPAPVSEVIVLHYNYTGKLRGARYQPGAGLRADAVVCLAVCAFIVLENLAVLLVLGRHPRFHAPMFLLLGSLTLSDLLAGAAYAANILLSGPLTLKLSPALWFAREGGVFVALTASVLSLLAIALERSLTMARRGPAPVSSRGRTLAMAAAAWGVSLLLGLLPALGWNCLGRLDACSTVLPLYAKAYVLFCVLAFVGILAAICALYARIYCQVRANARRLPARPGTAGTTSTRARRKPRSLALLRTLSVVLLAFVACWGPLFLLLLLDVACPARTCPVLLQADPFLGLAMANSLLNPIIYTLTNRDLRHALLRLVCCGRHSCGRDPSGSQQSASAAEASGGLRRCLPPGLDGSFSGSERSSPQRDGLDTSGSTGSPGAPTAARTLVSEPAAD
T3 sequence (P21453 whole entry): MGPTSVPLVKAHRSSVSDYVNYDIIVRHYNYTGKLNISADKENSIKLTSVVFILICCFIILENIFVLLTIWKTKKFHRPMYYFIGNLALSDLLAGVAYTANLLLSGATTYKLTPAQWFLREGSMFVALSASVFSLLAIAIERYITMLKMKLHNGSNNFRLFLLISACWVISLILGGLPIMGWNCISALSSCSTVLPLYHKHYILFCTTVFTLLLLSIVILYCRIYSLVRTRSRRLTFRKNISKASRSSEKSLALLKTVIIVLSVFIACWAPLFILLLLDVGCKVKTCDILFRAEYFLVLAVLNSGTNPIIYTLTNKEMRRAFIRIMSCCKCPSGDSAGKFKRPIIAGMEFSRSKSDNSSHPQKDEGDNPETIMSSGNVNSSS
T2 sequence (Q99500 whole entry): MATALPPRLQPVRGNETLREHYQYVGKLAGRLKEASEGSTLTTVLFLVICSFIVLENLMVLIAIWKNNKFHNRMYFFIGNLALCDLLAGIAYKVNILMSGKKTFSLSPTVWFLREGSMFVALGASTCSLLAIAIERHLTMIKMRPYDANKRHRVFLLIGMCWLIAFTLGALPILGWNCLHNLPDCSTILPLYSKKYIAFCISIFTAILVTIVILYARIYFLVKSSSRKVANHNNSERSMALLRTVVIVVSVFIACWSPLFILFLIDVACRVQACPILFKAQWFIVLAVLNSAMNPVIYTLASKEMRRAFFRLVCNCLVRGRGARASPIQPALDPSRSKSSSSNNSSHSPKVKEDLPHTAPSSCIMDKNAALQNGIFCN

Q: What does the source list for `CCCCCCCOc1ccc(CC[C@@](C)(N)CC(=O)O)cc1` [Example 1, (R)-3-Amino-5-(4-heptyloxy-phenyl)-3-methyl-pentanoic acid]?
A: S1P4 mode of action [1]: Agon; EC50 [1, 6]: 117 nM; S1P3 mode of action [2]: Agon; EC50 [2, 6]: 209 nM; S1P1 mode of action [3]: Agon; EC50 [3, 6]: 11 nM; S1P5 mode of action [4]: Agon; EC50 [4, 6]: 203 nM; depletion of peripheral blood lymphocytes [5]: more than 50%
